The subject of test [1] is Apoprotein E deficient mice. The test can be described thus: Thoracic aorta lipids (Bligh-Dyer extraction, WAKO kits; TC, FC, CE per mg protein). The format is in vivo. An excerpt: (§1) Apoprotein E deficient mice (Jackson Laboratories, 600 Main Street, Bar Harbor, Me.) were used in this study. The mice were male, 7-8 weeks of age, and between 18-20 g in weight. An initial total cholesterol measurement was made on 30 mice, and the mice were grouped into two groups of 15 to match the total cholesterol measurements. Both groups were fed a “western diet” (40 kcal % butterfat, 0.15% [wt/wt] cholesterol, Harlan Teklad diet TD-88137). Starting at t=0, the control group of 15 mice received vehicle only (phosphate buffered saline at pH 7.4), while the test group of 15 mice received aromatic-cationic peptide reconstituted in phosphate buffered saline. Body weights of the mice were recorded weekly, and mortality checks were performed daily.
(§2) The aromatic-cationic peptide D-Arg-2′6′-Dmt-Lys-Phe-NH2 (sterile lyophilized powder, reconstituted in phosphate buffered saline) was tested. For the 12-week study, test mice received a single, daily dose of the peptide, subcutaneously at 1 mg/kg. Control mice received a single daily dose of vehicle.
(§3) Following the 12 week treatment, mice were euthanized within 48 hours after the last dose by CO2 asphyxiation and the vascular tree was perfused with 5 mL of phosphate buffered saline (pH 7.4). The aorta and aortic sinus were removed for examination. Thoracic aorta were isolated, trimmed of fat, and fixed in formalin for 48-72 hours before analysis. For en face analysis, aortas were laid out and pinned on black matrix for photography, and stained with Sudan IV. Vessels were imaged for surface involvement using a Nikon computerized image analysis system and the percent of the aortic surface area covered by lipid was calculated. Two determinations were done for each image (Quan 1 and Quan 2), and the average was computed. The data were then computed by group and statistically analyzed. Following staining and morphometric analysis, total lipids were extracted from the aortas using the Bligh-Dyer method. WAKO Diagnostics kits (WAKO Diagnostics, Inc., 1600 Bellwood Road Richmond, Va. 23237-1326) were then used to evaluate total cholesterol, free cholesterol, and cholesterol ester. Cholesterol levels were quantitate nad expressed relative to protein levels. Values are expressed as μg lipid per mg protein (see e.g., FIG. 1).

Test [2] has as its system Apoprotein E deficient mice. The test can be described thus: En face analysis of atherosclerotic lesions, thoracic aorta (Sudan IV, % of aortic surface covered by lipid). The conditions noted are these: 12 weeks. The format is in vivo.
Text: as §1, §2, §3

[3] abbreviates: treated versus vehicle, 12 weeks (Table 8, FIG. 2).
Setting [4] is: μg lipid per mg protein, peptide 1 mg/kg s.c. daily, 12 weeks, individual mouse (sample 16-30).
Setting [5] is: ApoE deficient mice, western diet, peptide 1 mg/kg s.c. daily, individual mouse (sample 16-30).

Several values for one entry are separate records, joined by “and”; a condition that tells them apart may be missing. Identical values can stand only once. Entries after “also recorded” stand apart in the source; their conditions may differ.

As for D-Arg-2′6′-Dmt-Lys-Phe-NH2, in test [1] (group mean of 15 test mice, 12 weeks, vehicle group 7.5), the “Thoracic aorta FC (free cholesterol), AVE” value came out at 5.7 µg/mg. The “Thoracic aorta CE (cholesterol ester), AVE” value in test [1] (group mean of 15 test mice, 12 weeks, vehicle group 22.6) was 14.6 µg/mg. In addition, the “Thoracic aorta TC (total cholesterol), AVE” value in test [1] (group mean of 15 test mice, 12 weeks, vehicle group 30.1) was found to be 20.4 µg/mg. Also, in test [1] (setting [3]), the “Cholesterol esters in the thoracic aorta, in words” value is “lower”; the “Free cholesterol in the thoracic aorta, in words” value is on record as “lower”; the “Total cholesterol in the thoracic aorta, in words” value is “lower”. Moreover, in test [1] (setting [4]), the “Thoracic aorta CE (cholesterol ester)” value is 13.8 μg/mg and 2.7 μg/mg and 30.3 μg/mg and 14.7 μg/mg and 30.7 μg/mg and 14.1 μg/mg and 4.6 μg/mg (2×) and 5.6 μg/mg (2×) and 28.5 μg/mg and 21.3 μg/mg and 18.6 μg/mg and 11.4 μg/mg and 13.0 μg/mg; the “Thoracic aorta FC (free cholesterol)” value is 7.6 μg/mg (2×) and 4.0 μg/mg and 5.1 μg/mg and 3.0 μg/mg (2×) and 8.1 μg/mg and 2.7 μg/mg and 3.5 μg/mg and 14.6 μg/mg and 6.6 μg/mg and 3.8 μg/mg and 3.6 μg/mg and 3.3 μg/mg and 9.5 μg/mg; the “Thoracic aorta TC (total cholesterol)” value was 21.4 µg/mg and 6.7 µg/mg and 35.4 µg/mg and 17.7 µg/mg and 38.8 µg/mg and 16.8 µg/mg and 8.1 µg/mg and 20.1 µg/mg and 35.1 µg/mg and 9.4 µg/mg and 24.9 µg/mg and 21.7 µg/mg and 7.9 µg/mg and 19.0 µg/mg and 22.5 µg/mg. In test [2] (setting [5]), the “Ave. % of Lesion (average of Quan 1 and Quan 2)” value is 2.615% and 0.892% and 9.027% and 3.019% and 7.009% and 4.833% and 1.996% and 1.205% and 9.948% and 2.763% and 6.814% and 4.734% and 0.834% and 11.239% and 12.990%; the “Quan 1 (first determination of % of the aortic surface covered by lipid)” value was 10.000% and 4.700%; the “Quan 2 (second determination of % of the aortic surface covered by lipid)” value came to 0.870%. The “Ave (average % of the surface of the aortas showing lesions, group)” value in test [2] (group mean of 15 test mice, peptide 1 mg/kg s.c. daily, vehicle group 7.189) came out at 5.328%. The “Atherosclerotic lesions in the aorta (% lesion area), in words” value in test [2] (treated versus vehicle, 1 mg/kg s.c. daily (Table 7, FIG. 1A), 1 mg/kg) is reported as “reduces; also recorded: lower”.

Source of the values: patent US10201585B2, “Methods for treatment of atherosclerosis” (Stealth Peptides International, Inc., priority 2012, dated 2019).
